Values quoted from earlier work in US6100258A, “Aromatic amine compounds that antagonize the pain enhancing effects of prostaglandins” (Zeneca Limited, priority 1995, dated 2000).

## CC(=O)NNC(=O)N1Cc2ccccc2Oc2ccc(Cl)cc21 [SC-19220]
Dog fundus
  block of the effect of PGE2: blocks the effect of PGE2
Guinea pig ileum
  block of the effect of PGE2: blocks the effect of PGE2
